Test results taken from paper PMC10139140, “Synthesis of Novel 2-(Cyclopentylamino)thiazol-4(5H)-one Derivatives with Potential Anticancer, Antioxidant, and 11β-HSD Inhibitory Activities” (International Journal of Molecular Sciences, 2023).

Legend:
11β-HSD1 = biological target: T1, 11β-HSD1 (Homo sapiens, UniProt P28845); assay: Inhibition of 11β-HSD1 (cortisone to cortisol, human liver microsomes, cortisol ELISA); assay type: biochemical
T1 construct: Human liver microsomes were used as a source of 11β-HSD1 enzyme; tissue XenoTech Lot No. 1410013; host or cells: pooled human liver microsomes, mixed gender
T1 sequence (P28845 whole entry): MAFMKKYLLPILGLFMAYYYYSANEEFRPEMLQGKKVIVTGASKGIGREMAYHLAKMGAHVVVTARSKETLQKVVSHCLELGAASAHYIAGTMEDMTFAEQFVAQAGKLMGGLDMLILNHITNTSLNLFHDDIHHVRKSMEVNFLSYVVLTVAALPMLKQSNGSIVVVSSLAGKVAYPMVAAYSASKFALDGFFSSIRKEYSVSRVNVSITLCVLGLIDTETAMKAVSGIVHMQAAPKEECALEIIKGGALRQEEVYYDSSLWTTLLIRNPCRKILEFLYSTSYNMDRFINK
Summary of the method: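 Human liver microsomal conversion of cortisone to cortisol, incubated 2.5 h at 37 °C and stopped with 18β-glycyrrhetinic acid. Cortisol was quantified by ELISA against inhibitor-free controls.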

11β-HSD2 = biological target: T2, 11β-HSD2 (Homo sapiens, UniProt P80365); assay: Inhibition of 11β-HSD2 (cortisol to cortisone, human microsomes, cortisol ELISA); assay type: biochemical; settings: 2.5 h, 37 °C
T2 construct: Human liver microsomes were used as a source of 11β-HSD2 enzyme; tissue XenoTech Lot No. 1710160; host or cells: human kidney microsomes, mixed gender (method text says human liver microsomes)
T2 sequence (P80365 1-405): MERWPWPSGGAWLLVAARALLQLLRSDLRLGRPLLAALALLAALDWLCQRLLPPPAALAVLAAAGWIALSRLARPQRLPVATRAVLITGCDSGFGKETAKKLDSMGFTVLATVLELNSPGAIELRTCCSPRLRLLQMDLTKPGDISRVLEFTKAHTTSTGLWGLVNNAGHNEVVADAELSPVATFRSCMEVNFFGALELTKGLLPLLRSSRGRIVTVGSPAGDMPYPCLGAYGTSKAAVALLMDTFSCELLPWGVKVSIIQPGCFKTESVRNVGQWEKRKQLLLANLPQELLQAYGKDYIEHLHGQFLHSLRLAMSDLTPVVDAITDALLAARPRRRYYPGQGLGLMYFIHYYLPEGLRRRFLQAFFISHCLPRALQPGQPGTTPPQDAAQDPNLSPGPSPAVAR
Procedure: The resulting solution with a final volume of 100 µL was incubated for 2.5 h at 37 °C. […] The level of unreacted cortisol was measured by a commercially available ELISA kit.

BJ cells = assay: MTS metabolic activity assay, BJ cells; assay type: cell-based; settings: Homo sapiens, 72 h, read-out: Cell metabolic activity (MTS), % of untreated control
Summary of the method: (§1)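 Dose range applied for 72 h; MTS read-out at 590 and 620 nm, % of control.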

[1] = test system: human colon carcinoma (Caco-2); assay: MTS metabolic activity assay, Caco-2 cells; assay type: cell-based; settings: Homo sapiens, 72 h, read-out: Cell metabolic activity (MTS), % of untreated control
Summary of the method: as §1

[2] = test system: human pancreatic carcinoma (PANC-1); assay: MTS metabolic activity assay, PANC-1 cells; assay type: cell-based; settings: Homo sapiens, 72 h, read-out: Cell metabolic activity (MTS), % of untreated control
Summary of the method: as §1

glioma (U-118 MG) = assay: MTS metabolic activity assay, U-118 MG cells; assay type: cell-based; settings: Homo sapiens, U-118-MG, U118-MG, 72 h, read-out: Cell metabolic activity (MTS), % of untreated control
Summary of the method: as §1

[3] = test system: skin melanoma (SK-MEL-30); assay: MTS metabolic activity assay, SK-MEL-30 cells; assay type: cell-based; settings: 72 h
Summary of the method: as §1

[4] = test system: human breast carcinoma (MDA-MB-231); assay: MTS metabolic activity assay, MDA-MB-231 cells; assay type: cell-based; settings: 72 h
Summary of the method: as §1

## CCCC1SC(NC2CCCC2)=NC1=O (centres unmarked) [Compound 3c, 2-(cyclopentylamino)-5-propylthiazol-4(5H)-one]
11β-HSD1
  IC50: 2.75 ± 0.12 µM
11β-HSD1; 10 µM, 2.5 h, 37 °C
  inhibition at 10 µM: 56.6 ± 6.11%
11β-HSD2
  inhibition at 10 µM: 37.7 ± 6.07%
BJ cells; 10 µM
  viability at 10 µM: 98.2%
BJ cells; 20 µM
  viability at 20 µM: 99.7%
BJ cells; 50 µM
  viability at 50 µM: 102%
BJ cells; 100 µM
  viability at 100 µM: 108%
BJ cells; 200 µM
  viability at 200 µM: 112%
BJ cells; 300 µM
  viability at 300 µM: 111%
BJ cells; 500 µM
  viability at 500 µM: 115%
[1]; Caco-2, 10 µM
  viability at 10 µM: 88.1%
[1]; Caco-2, 20 µM
  viability at 20 µM: 86.6%
[1]; Caco-2, 50 µM
  viability at 50 µM: 87.6%
[1]; Caco-2, 100 µM
  viability at 100 µM: 82%
[1]; Caco-2, 200 µM
  viability at 200 µM: 86.1%
[1]; Caco-2, 300 µM
  viability at 300 µM: 83.1%
[1]; Caco-2, 500 µM
  viability at 500 µM: 68.5%
[2]; PANC-1, 10 µM
  viability at 10 µM: 108%
[2]; PANC-1, 20 µM
  viability at 20 µM: 106%
[2]; PANC-1, 50 µM
  viability at 50 µM: 112%
[2]; PANC-1, 100 µM
  viability at 100 µM: 114%
[2]; PANC-1, 200 µM
  viability at 200 µM: 116%
[2]; PANC-1, 300 µM
  viability at 300 µM: 115%
[2]; PANC-1, 500 µM
  viability at 500 µM: 122%
Glioma (U-118 MG); 10 µM
  viability at 10 µM: 111%
Glioma (U-118 MG); 20 µM
  viability at 20 µM: 110%
Glioma (U-118 MG); 50 µM
  viability at 50 µM: 110%
Glioma (U-118 MG); 100 µM
  viability at 100 µM: 114%
Glioma (U-118 MG); 200 µM
  viability at 200 µM: 113%
Glioma (U-118 MG); 300 µM
  viability at 300 µM: 112%
Glioma (U-118 MG); 500 µM
  viability at 500 µM: 112%
[3]; Homo sapiens, SK-MEL-30, 10 µM, read-out: Cell metabolic activity (MTS), % of untreated control
  viability at 10 µM: 101%
[3]; Homo sapiens, SK-MEL-30, 20 µM, read-out: Cell metabolic activity (MTS), % of untreated control
  viability at 20 µM: 102%
[3]; Homo sapiens, SK-MEL-30, 50 µM, read-out: Cell metabolic activity (MTS), % of untreated control
  viability at 50 µM: 101%
[3]; Homo sapiens, SK-MEL-30, 100 µM, read-out: Cell metabolic activity (MTS), % of untreated control
  viability at 100 µM: 101%
[3]; Homo sapiens, SK-MEL-30, 200 µM, read-out: Cell metabolic activity (MTS), % of untreated control
  viability at 200 µM: 95.9%
[3]; Homo sapiens, SK-MEL-30, 300 µM, read-out: Cell metabolic activity (MTS), % of untreated control
  viability at 300 µM: 75%
[3]; Homo sapiens, SK-MEL-30, 500 µM, read-out: Cell metabolic activity (MTS), % of untreated control
  viability at 500 µM: 45.5%
[3]; SK-MEL-30, higher concentrations, range given for the most effective substances together
  cell viability, decreases to: 20–65%
[4]; Homo sapiens, MDA-MB-231, 10 µM, read-out: Cell metabolic activity (MTS), % of untreated control
  viability at 10 µM: 101%
[4]; Homo sapiens, MDA-MB-231, 20 µM, read-out: Cell metabolic activity (MTS), % of untreated control
  viability at 20 µM: 102%
[4]; Homo sapiens, MDA-MB-231, 50 µM, read-out: Cell metabolic activity (MTS), % of untreated control
  viability at 50 µM: 99.1%
[4]; Homo sapiens, MDA-MB-231, 100 µM, read-out: Cell metabolic activity (MTS), % of untreated control
  viability at 100 µM: 97.4%
[4]; Homo sapiens, MDA-MB-231, 200 µM, read-out: Cell metabolic activity (MTS), % of untreated control
  viability at 200 µM: 88.4%
[4]; Homo sapiens, MDA-MB-231, 300 µM, read-out: Cell metabolic activity (MTS), % of untreated control
  viability at 300 µM: 75.9%
[4]; Homo sapiens, MDA-MB-231, 500 µM, read-out: Cell metabolic activity (MTS), % of untreated control
  viability at 500 µM: 55%
[4]; MDA-MB-231, higher concentrations, range given for the most effective substances together
  cell viability, decreases to: 20–65%
